Common to all, as to experiment: NCI anticancer screen, dose series, 48 h
The test system of assay [1] is Hs-578T.
Assay [2] concerns MDA-N.
Assay [3] has as its system DU-145.
The subject of assay [4] is PC-3.
The test system of assay [5] is BT-549.

Each structure is given as a SMILES string.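 Values below derive from 48-hour exposures of cells grown in 96-well plates, with endpoints linearly interpolated between the two concentrations bracketing the appropriate inhibition level. Abbreviation: GI50, concentration required for 50% inhibition of growth.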 Active and inactive are the calls of the source. Cut-off read from the data, not from the text of the source: active = GI50 up to about 1.1 µM and inactive = higher.

On to `COc1ccc(C2C3=C(COC3=O)Oc3cc4c(cc32)OCO4)cc1OC` (stereo not drawn), for which the GI50 in assay [1] is 0.408 µM (active); in assay [2] it was 0.135 µM (active); in assay [3], 1.81 µM (inactive); in assay [4], 0.521 µM (active).

As to `CCOP1(=O)C=C(Sc2ccc([N+](=O)[O-])cc2[N+](=O)[O-])C(C)(C)O1` (stereo not drawn), the GI50 in assay [1] is 26.7 µM (inactive); in assay [2], 5.07 µM (inactive); in assay [3], 13.4 µM (inactive); in assay [5], 17.5 µM (inactive); in assay [4] it was 11.9 µM (inactive).

`COC(=O)c1sc2nc(Nc3ccccc3)/c(=N\c3ccccc3)sc2c1C`: the GI50 in assay [1] was 27.7 µM (inactive); in assay [2], 66.8 µM (inactive); in assay [3] it was > 100 µM (inactive); in assay [4] it was > 100 µM (inactive).

As to `COc1ccccc1NC(=O)O/N=C(/Cl)C(C)C`, the GI50 is 24.9 µM (inactive) in assay [1]; 13.6 µM (inactive) in assay [2]; 18.8 µM (inactive) in assay [3]; 3.48 µM (inactive) in assay [5]; 18.5 µM (inactive) in assay [4].

For the compound `CC1(C)CCOC(=O)C(Cl)CC1Cl` (stereo not drawn), the GI50 in assay [1], in assay [2], in assay [3] and in assay [4] was > 100 µM (inactive) in each case.

As for `COc1ccc2[nH]c3c(C)c4ccnc(NCCCN(C)CCCN)c4c(C)c3c2c1`, the GI50 is 0.0364 µM (active) in assay [1]; 0.214 µM (active) in assay [2]; 0.196 µM (active) in assay [3]; 1.76 µM (inactive) in assay [5]; 0.259 µM (active) in assay [4].

With `Fc1ccc2c3c([nH]c2c1)CCNC3`, the GI50 in assay [1] and in assay [3] was > 100 µM (inactive) each time.

As to `CC(C)=CCc1c(O)c(CC=C(C)C)c2oc3c(c(=O)c2c1O)C(C=C(C)C)Oc1cc(O)ccc1-3` (stereo not drawn), the GI50 in assay [1] is 12 µM (inactive); in assay [2], 3.32 µM (inactive); in assay [3] it was 10.4 µM (inactive); in assay [5], 12.2 µM (inactive); in assay [4], 5.41 µM (inactive).

For the compound `Oc1ccc(/N=N/c2ccc(Cl)cc2)cc1`, the GI50 was 28.8 µM (inactive) in assay [1]; 16.9 µM (inactive) in assay [2]; 16.4 µM (inactive) in assay [3]; 15.1 µM (inactive) in assay [5]; 14.9 µM (inactive) in assay [4].

On to `Oc1cc(Br)cc2cc(Br)cnc12`, for which the GI50 in assay [1] is 3.24 µM (inactive); in assay [2], 5.37 µM (inactive); in assay [3], 3.68 µM (inactive); in assay [5], 4.58 µM (inactive); in assay [4], 3.71 µM (inactive).

As for `CC(=O)O[C@H]1[C@@H](OC2CCCC2(c2ccccc2)c2ccccc2)O[N+]([O-])=C[C@@]12COCc1cc3c(cc12)OCO3` (stereo partly drawn), the GI50 was 2.65 µM (inactive) in assay [1], 6.32 µM (inactive) in assay [3], 23 µM (inactive) in assay [5] and 4.2 µM (inactive) in assay [4].

`COc1ccc(CNc2nc(NC3CCCCC3)nc(NC3CCCCC3)n2)cc1`: the GI50 in assay [1] was 7.29 µM (inactive); in assay [3], 5.6 µM (inactive); in assay [5] it was 8.53 µM (inactive); in assay [4], 5.15 µM (inactive).

On to `Cc1ccc(O)c(C(c2cc(C)ccc2O)c2cc([N+](=O)[O-])ccc2O)c1`, for which the GI50 in assay [1] was 7.71 µM (inactive); in assay [3], 17.3 µM (inactive); in assay [4], 9.02 µM (inactive).

For the compound `CC(C)(C)OC(=O)NCCCCCCC(=O)Cc1ccccc1`, the GI50 in assay [2], in assay [3], in assay [5] and in assay [4] was > 100 µM (inactive) in each case.

For `COC(=O)C1=C(C)NC2(C)OC(C)(O)C(C(C)=O)C12C(C)=O` (stereo not drawn), the GI50 was 25.4 µM (inactive) in assay [1]; > 100 µM (inactive) in assay [2]; > 100 µM (inactive) in assay [3]; 66.5 µM (inactive) in assay [5]; 13.9 µM (inactive) in assay [4].

In the case of `C[N+]12C=CC=C1C(N1CCCC1)c1scc(-c3ccccc3)c12` (stereo not drawn), the GI50 in assay [1] was 9.84 µM (inactive); in assay [2] it was 18.8 µM (inactive); in assay [3], 52.2 µM (inactive); in assay [5] it was 4.25 µM (inactive); in assay [4], 17.1 µM (inactive).

For `COc1cccc(/C=N/NC(=O)CSCC(=O)N/N=C/c2cccc(OC)c2OC)c1OC`, the GI50 was 37.7 µM (inactive) in assay [1], > 100 µM (inactive) in assay [3] and > 100 µM (inactive) in assay [4].

Regarding `C/C(=N\NC(=S)NCc1ccccc1)c1nc2cccnc2[nH]1`, the GI50 in assay [1] is 18.3 µM (inactive); in assay [2], 11.3 µM (inactive); in assay [3], 4.84 µM (inactive); in assay [5], 6.12 µM (inactive); in assay [4], 8.95 µM (inactive).

As to `CC(=O)OC1COC(n2nc(/C=C/c3ccc(Cl)cc3)c(=O)n(/N=C/c3ccccc3)c2=S)C(OC(C)=O)C1OC(C)=O` (stereo not drawn), the GI50 in assay [1], in assay [2], in assay [3], in assay [5] and in assay [4] was > 100 µM (inactive) each time.

On to `O=C(c1ccccc1)N1CCC(Nc2nccs2)O1` (stereo not drawn), for which the GI50 in assay [1], in assay [3], in assay [5] and in assay [4] was > 10 µM (inactive) throughout.

As to `CC1C(c2ccccc2)OP(=O)(OC(C#N)c2ccccc2)N1C` (stereo not drawn), the GI50 in assay [1], in assay [2], in assay [3], in assay [5] and in assay [4] was > 100 µM (inactive) in each case.

As to `Cc1ccc(O)c(Cc2nc3ccccc3nc2-c2cccc(Cl)c2)c1`, the GI50 is 30.6 µM (inactive) in assay [1]; 29.5 µM (inactive) in assay [2]; > 100 µM (inactive) in assay [3]; > 100 µM (inactive) in assay [5]; 42 µM (inactive) in assay [4].

Consider `O=C1CNC(=O)/C(=C/c2c[nH]c3ccccc23)N1`, for which the GI50 in assay [1], in assay [2], in assay [3], in assay [5] and in assay [4] was > 100 µM (inactive) in each case.

Consider `CC1(C)C=Cc2c(cc(O)c3c(=O)c4cc(Cl)ccc4[nH]c23)O1`, for which the GI50 in assay [1] is 0.161 µM (active); in assay [2], 2.62 µM (inactive); in assay [5] it was 2.63 µM (inactive); in assay [4] it was 2.04 µM (inactive).

Take `Cc1cccc2nc3cccc(C(=O)NCCC[N+](C)(CCCNC(=O)c4cccc5nc6cccc(C)c6nc45)Cc4ccc([N+](=O)[O-])n4C)c3nc12`: the GI50 is 18.5 µM (inactive) in assay [1]; 6.08 µM (inactive) in assay [2]; 1.45 µM (inactive) in assay [3]; > 100 µM (inactive) in assay [5]; 1.83 µM (inactive) in assay [4].

Take `COC(=O)CN1C(=O)C2(C(=O)OC)OC1(c1ccc([N+](=O)[O-])cc1)C1C(=O)N(c3ccccc3)C(=O)C12` (stereo not drawn): the GI50 in assay [1], in assay [2], in assay [3], in assay [5] and in assay [4] was > 100 µM (inactive) in each case.

With `N=C(N)NCCCC(NC(=O)OCCCCn1ccc(N)nc1=O)C(=O)O` (stereo not drawn), the GI50 in assay [1], in assay [2], in assay [3], in assay [5] and in assay [4] was > 100 µM (inactive) each time.

For the compound `COc1ccc(/N=C(/C[S+]([O-])c2ccc(C)cc2)C(F)(F)F)cc1` (stereo not drawn), the GI50 in assay [2] is > 100 µM (inactive); in assay [3] it was > 100 µM (inactive); in assay [5], > 100 µM (inactive); in assay [4] it was 26.5 µM (inactive).

With `CC1=NN(c2nc(N)nc(CSc3nc4n(c(=S)n3)CCN4)n2)C(C)(C)C1`, the GI50 in assay [1] is 15.6 µM (inactive); in assay [5] it was > 100 µM (inactive); in assay [4], 30.1 µM (inactive).

As to `N#CC(NC12CC3CC(CC(C3)C1)C2)c1ccccc1` (stereo not drawn), the GI50 in assay [1], in assay [2], in assay [3], in assay [5] and in assay [4] was > 100 µM (inactive) in each case.

Consider `CCOC(=O)/C(=C\NC(C)(C)C)c1nc2ccccc2[nH]1`, for which the GI50 in assay [1] is 19.6 µM (inactive); in assay [2] it was 22.9 µM (inactive); in assay [3] it was 29.9 µM (inactive); in assay [5] it was 27.9 µM (inactive).

For `CC(C)=CC(=O)O[C@@H]1CC(C)(C)CC2C3=CCC4[C@]56CC[C@](O)(OC5)C(C)(C)C6CC[C@@]4(C)C3(C)CC[C@]21C(=O)O` (stereo partly drawn), the GI50 in assay [1] was > 100 µM (inactive); in assay [2], > 100 µM (inactive); in assay [3] it was 56.4 µM (inactive); in assay [5], > 100 µM (inactive); in assay [4], 33.2 µM (inactive).

For the compound `C=CCN1CCN([C@H](c2ccc(C(=O)N(CC)CC)cc2)c2cccc(OC)c2)CC1`, the GI50 in assay [1], in assay [2], in assay [3], in assay [5] and in assay [4] was > 25 µM (inactive) in each case.

Turning to `Nc1ccn(C=C=CCO)c(=O)n1`, the GI50 in assay [1], in assay [2], in assay [3], in assay [5] and in assay [4] was > 100 µM (inactive) each time.

With `O=C1c2ccc3c4ccc5c6c(ccc(c7ccc(c2c37)C(=O)N1CCN1CCCCC1)c64)C(=O)N(CCN1CCCCC1)C5=O`, the GI50 in assay [1], in assay [2], in assay [3], in assay [5] and in assay [4] was > 100 µM (inactive) each time.

For `c1cc2c(cc1NC1=NCCO1)CCC2`, the results for the GI50 in assay [1], in assay [2] and in assay [4] were 1.03 µM (active), 3.24 µM (inactive) and > 10 µM (inactive), respectively.

For the compound `COc1cc(-c2oc3c(OC)c(O)c(OC)c(O)c3c(=O)c2OC)cc(OC)c1OC`, the GI50 is 14.3 µM (inactive) in assay [1]; 61.8 µM (inactive) in assay [2]; > 100 µM (inactive) in assay [3]; 71.8 µM (inactive) in assay [5]; 65.8 µM (inactive) in assay [4].

With `CC(=O)Oc1ccccc1C(=O)O` [ASPIRIN], the GI50 in assay [2], in assay [3], in assay [5] and in assay [4] was > 100 µM (inactive) in each case.
